The structures appear in SMILES notation.

The text below walks through data of patent publication US6262065A (priority 1998, dated 2001).

Test [1] concerns the target T1, α-mannosidase (jack bean) (Canavalia ensiformis, UniProt C0HJB3).
T1 construct: purchased Sigma Chemical Co
T1 sequence (C0HJB3 1-562 limits assumed): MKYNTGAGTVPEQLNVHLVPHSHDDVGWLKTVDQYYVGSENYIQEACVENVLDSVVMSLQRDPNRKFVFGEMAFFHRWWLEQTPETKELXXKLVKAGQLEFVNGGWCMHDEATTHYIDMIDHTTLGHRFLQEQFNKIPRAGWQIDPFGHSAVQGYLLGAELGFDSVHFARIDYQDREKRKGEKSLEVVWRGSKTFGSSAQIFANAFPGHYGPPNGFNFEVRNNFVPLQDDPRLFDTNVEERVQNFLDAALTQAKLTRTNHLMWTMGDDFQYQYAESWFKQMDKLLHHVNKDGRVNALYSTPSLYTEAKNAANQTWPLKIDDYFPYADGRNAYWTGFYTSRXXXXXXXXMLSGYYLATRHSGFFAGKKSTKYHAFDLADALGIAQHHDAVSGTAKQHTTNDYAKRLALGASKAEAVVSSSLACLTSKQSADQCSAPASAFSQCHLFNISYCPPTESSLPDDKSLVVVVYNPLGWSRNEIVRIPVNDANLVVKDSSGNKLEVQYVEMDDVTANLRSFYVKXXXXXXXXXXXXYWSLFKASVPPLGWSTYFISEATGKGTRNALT
T1 sequence (C0HJB3 563-981 limits assumed): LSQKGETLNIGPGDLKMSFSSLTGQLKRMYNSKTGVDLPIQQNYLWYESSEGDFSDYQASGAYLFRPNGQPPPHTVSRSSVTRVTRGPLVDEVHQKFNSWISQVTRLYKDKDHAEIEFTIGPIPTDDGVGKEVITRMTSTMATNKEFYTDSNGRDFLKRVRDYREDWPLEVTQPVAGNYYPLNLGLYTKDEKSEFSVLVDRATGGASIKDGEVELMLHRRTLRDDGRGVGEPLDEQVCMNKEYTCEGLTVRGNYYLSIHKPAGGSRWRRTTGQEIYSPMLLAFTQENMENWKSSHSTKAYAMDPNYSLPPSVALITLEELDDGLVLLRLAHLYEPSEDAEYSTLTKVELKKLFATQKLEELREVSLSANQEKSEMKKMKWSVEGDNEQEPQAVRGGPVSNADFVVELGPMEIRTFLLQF
Put plainly: inhibition of α-mannosidase (jack bean), colorimetric release of p-nitrophenol from p-nitrophenyl α-D-mannopyranoside. The format is biochemical. Particulars: initial screening.
Procedure: The enzyme α-mannosidase (from jack bean) and the corresponding p-nitrophenyl α-D-mannopyranoside substrate was obtained from Sigma Chemical Co. Enzyme inhibition was assayed colorimetrically by monitoring the release of p-nitrophenol from p-nitrophenyl α-D-mannopyranoside according to the procedure described by Tropea, et. al. (Tropea, J. E., et al, Biochemistry, Vol. 28, pp. 2027-2034 (1989)).

The subject of another test is glucosidase I. Particulars: cited from earlier work.
A further test deals with amyloglucosidase. Particulars: cited from earlier work.
The next test deals with HIV. Particulars: cited from earlier work.
The subject of test [2] is mannosidases including the glycoprotein processing enzyme mannosidase II. Particulars: many mannosidases including mannosidase II; cited from earlier work.

In test [1], `OC[C@@H]1[C@@H](O)[C@@H](O)[C@H]2[C@H](O)CCCN21` [(VII), (1S,2R,3R,8R,8aR)-3-(Hydroxymethyl)-1,2,8-trihydroxyindolizidine] yielded an IC50 of 1.2 µM. Still for that read-out and setting: under `OC[C@H]1[C@@H](O)[C@@H](O)[C@H]2[C@H](O)CCCN21` [(VIII), (1S,2R,3S,8R,8aR)-3-(Hydroxymethyl)-1,2,8-trihydroxyindolizidine] stands 45 µM. In the case of `OCC1C(O)C(O)C2C(O)CCN12` (stereo not shown) [compound 1], in the test with glucosidase I, the “inhibition of glucosidase I” value is on record as “good inhibitors”. Besides, the inhibition of amyloglucosidase result with amyloglucosidase is “good inhibitors”. Regarding `OCC1C(O)C(O)C2C(O)CCN12` (stereo not shown) [compound 3], in the test on glucosidase I, the “inhibition of glucosidase I” value is on record as “good inhibitors”. Further, the inhibition of amyloglucosidase entry in the test with amyloglucosidase is recorded as “good inhibitors”. For `OCC1C(O)C(O)C2C(O)CCN12` (stereo not shown) [compound 4], the anti-HIV activity entry in the test with HIV is on record as “shows anti-HIV activity”. The “inhibition of glucosidase I” value in the test with glucosidase I is “good inhibitors”. The inhibition of amyloglucosidase entry in the test with amyloglucosidase is “good inhibitors”. For `O[C@H]1[C@H]2[C@H](O)CCCN2C[C@H]1O` [swainsonine, (-)-swainsonine], the inhibition of mannosidases result in test [2] was “potent inhibitor”.
